Data set [1] deals with Hepatitis C virus. As to the kind of experiment: Antiviral activity against Hepatitis C virus genotype 1b infected in human HuH7 cells after 72 hrs by FRET assay. In kind it is functional, cell-based, Hepacivirus hominis. The note with it: Huh-7, 72 h.
A short description of data set [2]: Selectivity ratio of EC50 for Bovine viral diarrhea virus to EC50 for Hepatitis C virus genotype 1b. It is filed as functional.
The test system of data set [3] is Bovine viral diarrhea virus 1. As to the kind of experiment: Antiviral activity against Bovine viral diarrhea virus infected in human HuH7 cells after 72 hrs by luciferase reporter gene assay. It is filed as functional, organism-based. Conditions: Bovine viral diarrhea virus isolates and strains, Huh-7, 72 h.
Data set [4] is described as follows: Cytotoxicity against human HuH7 cells by Alamar blue assay. In kind it is cell-based, Huh-7. (In general: Resazurin is reduced to fluorescent resorufin, in cell work by metabolically active cells.)
The subject of data set [5] is Hepatitis C virus. Kind of data set: Selectivity ratio of EC50 for Hepatitis C virus genotype 1b harboring NS5A Y93H mutation to EC50 for Hepatitis C virus genotype 1b. In kind it is functional, Hepacivirus hominis.
The test system of data set [6] is Hepatitis C virus. As to the kind of experiment: Selectivity ratio of EC50 for Hepatitis C virus genotype 1b harboring NS5A L31V/Q54L mutation to EC50 for Hepatitis C virus genotype 1b. In kind it is functional, Hepacivirus hominis.
The subject of data set [7] is Hepatitis C virus. Kind of data set: Antiviral activity against Hepatitis C virus genotype 1a. In kind it is functional, Hepacivirus hominis. Conditions: subtype 1a.
For data set [8], the system named is Hepatitis C virus. Kind of data set: Antiviral activity against Hepatitis C virus genotype 1 infected in human assessed as log10 IU/ml reduction in mean plasma viral load at 1 mg measured at 24 hrs. In kind it is functional, Hepacivirus hominis.
Data set [9] concerns Hepatitis C virus. As to the kind of experiment: Antiviral activity against Hepatitis C virus genotype 1 infected in human assessed as log10 IU/ml reduction in mean plasma viral load at 10 mg measured at 24 hrs. It is filed as functional, Hepacivirus hominis.
In data set [10] the test system is Hepatitis C virus. Kind of data set: Antiviral activity against Hepatitis C virus genotype 1b infected in human assessed as log10 IU/ml reduction in mean plasma viral load at 100 mg measured at 24 hrs. In kind it is functional, Hepacivirus hominis.
A further data set is described as follows: in vivo. The note with it: rat, liver, 5 mg/kg.
Data set [11] deals with Hepatitis C virus. As to the kind of experiment: microbe, parasite or virus in culture. Conditions: genotype 2a JFH-1.
Description: Antiviral activity against Hepatitis C virus genotype 2a JFH
Data set [12] concerns Hepatitis C virus. As to the kind of experiment: Antiviral activity against Hepatitis C virus genotype 1b. It is filed as functional, Hepacivirus hominis.

Some results are limits rather than exact numbers.

Description for in vivo: Ratio of drug level in liver to plasma in rat at 5 mg/kg

Take `C[C@H](NC(=O)OCc1ccccc1)C(=O)Nc1ccc(C2S/C(=N\c3cccc(F)c3)N(Cc3ccco3)C2=O)cc1` (stereo partly drawn): the concentration for a half-maximal effect (EC50) was 570 nM with Hepatitis C virus [1] and > 50 µM in data set [3]. Further, the Ratio EC50 in data set [2] is > 50; in the data set with Hepatitis C virus [5], >5. In addition, the CC50 in [4] is > 50 µM.
In the data set on Hepatitis C virus [1], `O=C(Nc1ccc(C2S/C(=N\c3cccc(F)c3)N(Cc3ccco3)C2=O)cc1)[C@H]1CCCN1C(=O)OCc1ccccc1` (stereo partly drawn) registered an EC50 of 6000 nM.
As to `C[C@H](NC(=O)Cc1ccccc1)C(=O)Nc1ccc(C2S/C(=N\c3cccc(F)c3)N(Cc3ccco3)C2=O)cc1` (stereo partly drawn), the EC50 in the data set on Hepatitis C virus [1] turned out to be 5 nM. Also, the “Ratio EC50” value in the data set on Hepatitis C virus [5] was >625; in the data set with Hepatitis C virus [6], 354.
`C[C@H](NC(=O)CCc1ccccc1)C(=O)Nc1ccc(C2S/C(=N\c3cccc(F)c3)N(Cc3ccco3)C2=O)cc1` (stereo partly drawn) showed an EC50 with Hepatitis C virus [1] of 1900 nM.
Still for that read-out and setting: for `O=C(Nc1ccc(C2S/C(=N\c3cccc(F)c3)N(Cc3ccco3)C2=O)cc1)[C@@H]1CCCN1C(=O)CCc1ccccc1` (stereo partly drawn) the value was 5500 nM.
`C[C@H](NC(=O)OCc1ccccc1)C(=O)Nc1ccc(C2S/C(=N\c3cccc(F)c3)N(Cc3cnccn3)C2=O)cc1` (stereo partly drawn): in the data set with Hepatitis C virus [1], the midpoint of the response, the EC50, lay at 38 nM.
In the data set on Hepatitis C virus [1], `C[C@H](NC(=O)OCc1ccccc1)C(=O)Nc1ccc(C2S/C(=N\c3cccc(F)c3)N(Cc3ccccn3)C2=O)cc1` (stereo partly drawn) gave an EC50 of 2 nM.
Consider `O=C(Nc1ccc(/C=C/c2ccc(NC(=O)[C@@H]3CCCN3C(=O)Cc3ccccc3)cc2)cc1)[C@@H]1CCCN1C(=O)Cc1ccccc1`, for which the EC50 in the data set with Hepatitis C virus [7] was > 10 µM.
Consider `COC(=O)N[C@H](C(=O)N1CCC[C@H]1c1ncc(-c2ccc(-c3ccc(-c4cnc([C@@H]5CCCN5C(=O)[C@@H](NC(=O)OC)C(C)C)[nH]4)cc3)cc2)[nH]1)C(C)C`, for which the Activity stood at 1.8 log10IU/ml in the data set on Hepatitis C virus [8], 3.2 log10IU/ml with Hepatitis C virus [9] and 3.6 log10IU/ml in the data set with Hepatitis C virus [10]. In addition, the Kp in the data set “in vivo” was found to be 5. Further, the 50% effective concentration (EC50) in the data set on Hepatitis C virus [11] amounted to 0.028 nM.
As to `O=C1N[C@H]2[C@H](CO[C@H]2CCCCC(=O)N2CCC[C@H]2C(=O)Nc2ccc(/C=C/c3ccc(NC(=O)[C@@H]4CCCN4C(=O)Cc4ccccc4)cc3)cc2)N1`, in the data set on Hepatitis C virus [12], the EC50 was > 10 µM.
As for `C[C@H](NC(=O)OCc1ccccc1)C(=O)Nc1ccc(C2S/C(=N\c3ccc(N4CCOCC4)c(F)c3)N(Cc3ccco3)C2=O)cc1` (stereo partly drawn), the half-maximal effective concentration (EC50) in the data set with Hepatitis C virus [1] was found to be 15 nM. That is a double-digit nanomolar value.
`C[C@H](NC(=O)OCc1ccccc1)C(=O)Nc1ccc(C2S/C(=N\c3cccc(F)c3)N(Cc3cc(F)c(F)c(F)c3)C2=O)cc1` (stereo partly drawn) yielded an EC50 with Hepatitis C virus [1] of 600 nM.
`O=C(Nc1ccc(C2S/C(=N\c3cccc(F)c3)N(Cc3ccco3)C2=O)cc1)[C@H]1CCCN1C(=O)Cc1ccccc1` (stereo partly drawn) yielded an EC50 in the data set on Hepatitis C virus [1] of 2 nM.

As usually defined, the EC50 is the concentration needed to bring the measured effect to its halfway point. A higher EC50 goes with weaker potency. The CC50 is the concentration giving 50% cytotoxicity. High values mean lower toxicity to the cells, low ones greater toxicity to the cells.

The values above are taken from ChEMBL document CHEMBL3286147 (J Med Chem, 2014).
